Experimental findings from US20070202574A1, “Novel Saccharothrix Strain an Antibiotics Derived Therefrom, i.e. Mutactimycins and Aldgamycins” (Institut National Polytechnique de Toulouse, priority 2004, published 2007) are described below.

≈ marks a conversion by molar mass, not a printed value. Where “and” joins values, the source holds several entries; their conditions need not be identical. Identical values can stand only once. Entries after “also recorded” stand apart in the source; their conditions may differ.

Data set [1] relates to Mucor ramannianus NRRL 1829. Put plainly: MIC, antimicrobial spectrum. Format: cell-based. The note with it: Umbelopsis ramanniana, NRRL1829.
The test system of data set [2] is Staphylococcus aureus CIP 7625. Put plainly: MIC, antimicrobial spectrum. The note with it: CIP7625. Format: cell-based.
In another data set the test system is Bacillus subtilis. In words: HPLC fractions tested against Bacillus subtilis (gelose diffusion test). The data set is classed as cell-based. The note with it: concentrated HPLC peak fractions. As for the experimental part:
A sample of the strain SA 103 taken from an immature inclined culture was inoculated into an Erlenmeyer flask containing 50 ml of the sterile culture medium containing 0.4t glucose, a 1% malt extract and a 0.4% yeast extract (adjusted to pH 7.2 before sterilisation) and placed in culture on a rotary stirrer (250 rpm) at 30° C. for two days. For producing antibiotics, 3 ml of culture medium were transferred to 500 ml Erlenmeyer flasks, each containing 100 ml of the above medium, and placed in culture for 10 days using the same conditions. The production of total antibacterial activity was carried out on a nutrient gelose, by a gelose diffusion test against Bacillus sutilis ATCC 6633. Inhibition of growth was examined after 24 hours of incubation at 30° C. Antimicrobial activity was estimated by measuring the diameter of the inhibition zone. The dry weight of the mycelium was determined in Eppendorf tubes filled with 1 ml of homogenized culture medium and dried at 105° C. for 24 hours (Pfefferle et al. J. Biotech. 80:135-142, 2000).
The butanolic extract, of a red colour, was concentrated on the Rotavapor. An aliquot of this extract was first sent through a Sephadex LH 20 column using methanol in double distilled water (80%) as the mobile phase. However, the separation of the antibiotics (visualisation by the naked eye and by the antibiography) was not conclusive. This step was therefore eliminated and the butanolic extract was purified directly by a reverse phase HPLC using a C18 column and isocratic conditions (63% methanol in water), a flow rate of 1.5 ml/min and detection at 220 nm. The fractions corresponding to all the peaks obtained on the profile were collected separately, concentrated and tested against Bacillus subtilis. […] These antibiotics were purified by HPLC after 3 to 4 reinjections in the same conditions as previously.

Data set [3] concerns Saccharomyces cerevisiae ATCC 4226. Put plainly: MIC, antimicrobial spectrum. The data set is classed as cell-based. The note with it: ATCC4226.
In data set [4] the test system is Klebsiella pneumoniae CIP 82.91. In words: MIC, antimicrobial spectrum. The note with it: for MIC: Klebsiella pneumoniae, CIP82, Klebsiella pneumoniae CIP 82.91; for activity in words: K. pneumoniae. The data set is classed as cell-based.
The subject of data set [5] is Listeria monocytogenes CIP 82110. In words: MIC, antimicrobial spectrum. Format: cell-based. Particulars: CIP82110, Listeria monocytogenes CIP 82110.
In data set [6] the test system is Bacillus subtilis ATCC 6633. In words: MIC, antimicrobial spectrum. Format: cell-based. Particulars: for MIC: ATCC6633, Bacillus subtilis ATCC 6633.
The test system of data set [7] is Mycobacterium smegmatis ATCC 607. In words: MIC, antimicrobial spectrum. The data set is classed as cell-based. The note with it: for MIC: Mycolicibacterium smegmatis, ATCC607, Mycobacterium smegmatis ATCC 607; for activity in words: Mycobacterium smegmatis.
In data set [8] the test system is Micrococcus luteus ATCC 9314. Put plainly: MIC, antimicrobial spectrum. The data set is classed as cell-based. Particulars: for MIC: ATCC9314, Micrococcus luteus ATCC 9314; for activity in words: M. luteus.
In data set [9] the test system is Pseudomonas syringae No 1882. Put plainly: MIC, antimicrobial spectrum. The note with it: NO1882. The data set is classed as cell-based.
Data set [10] deals with Escherichia coli ATCC 10536. Put plainly: MIC, antimicrobial spectrum. The data set is classed as cell-based. The note with it: ATCC10536.
The nature of data set [11]: Relative solubility in solvents. Format: physicochemical. Particulars: value = list of solvents; for Relative solubility: Highly soluble (solvents) / Relative solubility: Insoluble (solvents) / Relative solubility: Medium soluble (solvents): wrapped cells given line by line. From the text: The antibiotics P11, PR, F and G are bright red in colour at neutral pH, yellow at acid pH and violet-blue at basic pH. P11 is the majority antibiotic and PR, the minority antibiotic. These antibiotics were the subject of the following […] analyses: UV visible light, infrared, mass spectrometry and NMR of the proton and carbon 13 (with studies of the correlations). Supplementary tests, such a solubility, determination of Rf by CCM and elemental analysis (the latter only for P11) were also carried out.

In data set [12] the test system is Agrobacterium tumefaciens No 2410. In words: MIC, antimicrobial spectrum. The data set is classed as cell-based. Particulars: NO2410.
Data set [13] has as its system Staphylococcus aureus CIP 53156. In words: MIC, antimicrobial spectrum. Format: cell-based. Particulars: for MIC: Staphylococcus aureus, CIP53156, Staphylococcus aureus CIP 53156; for activity in words: Staphylococcus aureus CIP 53156.

`COC1C(OCC2/C=C/C=C/C(=O)C(C)CC(C)C(OC3OC(C)CC(O)(C(C)O)C3O)C(C)/C=C/C(=O)OC2C)OC(C)C(O)C1OC` (stereo not drawn) [P10b, aldgamycin P10b]: the MIC in [1] was more than 100 µg/mL; in [2], more than 100 µg/mL; in data set [3], more than 100 µg/mL; in data set [4], 0.1 µg/mL (≈ 0.143 µM); in data set [5], 30 µg/mL (≈ 42.9 µM); in data set [6], 1 µg/mL (≈ 1.43 µM). For the same molecule, the MIC in data set [7] was 50 µg/mL (≈ 71.5 µM); in [8], 1 µg/mL (≈ 1.43 µM); in [9], more than 100 µg/mL; in data set [10], more than 100 µg/mL; in data set [12], more than 100 µg/mL; in data set [13], 1 µg/mL (≈ 1.43 µM). Further, the “activity of the collected HPLC fraction against Bacillus subtilis” value (“activity of the collected HPLC fraction” for short) in the data set on Bacillus subtilis is “active”. Besides, the “Relative solubility: Highly soluble (solvents)” value in data set [11] was “methanol, n-butanol, ethanol, 1 and 2-propnol, ethyl acetate, acetone, chloroform and dichloromethane”. In data set [11], the “Relative solubility: Insoluble (solvents)” value was “water and n-hexane”.
For `CC1OC(Oc2cccc3c2C(=O)c2c(O)c4c(c(O)c2C3=O)CC(C)(O)CC4O)C(O)C(O)C1O` (stereo not drawn) [G, mutactimycin G], in the data set with Bacillus subtilis, the “activity of the collected HPLC fraction” value is listed as “active”. The activity in words entry in data set [4], in [6], in data set [7], in data set [8] and in data set [13] was “active” in each case. In data set [11], the “soluble in (solvents)” value is “water, n-butanol, 1-propanol, methanol and ethanol”. In addition, the “Relative solubility: Highly soluble (solvents)” value in data set [11] is listed as “n-BuOH, l-PrOH”. For the same molecule, the “Relative solubility: Insoluble (solvents)” value in data set [11] is “chloroform, dichloromethane, ethyl acetate, n-hexane and toluene; also recorded: H2O, CH2Cl2, CHCl3, EtOAc,; also recorded: Me2CO, n-hexane, toluene”. The “Relative solubility: Medium soluble (solvents)” value in data set [11] was “MeOH, EtOH”.
For the molecule `COC1C(OCC2C(C)OC(=O)/C=C/C(C)C(OC3OC(C)CC4(OC(=O)OC4C)C3O)C(C)CC(C)C(=O)/C=C/C3OC32)OC(C)C(O)C1OC` (stereo not drawn) [P10a, aldgamycin G], in the data set on Bacillus subtilis, the “activity of the collected HPLC fraction” value is “active”. Further, the MIC in data set [4] is 0.1 µg/mL (≈ 0.135 µM); in data set [5], 30 µg/mL (≈ 40.5 µM); in data set [6], 1 µg/mL (≈ 1.35 µM); in data set [7], 50 µg/mL (≈ 67.5 µM); in [8] it was 1 µg/mL (≈ 1.35 µM); in data set [13], 1 µg/mL (≈ 1.35 µM). Moreover, in data set [11], the “soluble in (solvents)” value was “n-butanol, 1 and 2-propanol, methanol, dichloromethane, ethyl acetate, chloroform, acetone and ethanol”. The “Relative solubility: Highly soluble (solvents)” value in data set [11] was “methanol, n-butanol, ethanol, 1 and 2-propnol, ethyl acetate, acetone, chloroform and dichloromethane; also recorded: MeOH, EtOH, Me2CO,; also recorded: n-BuOH, 1-PrOH, 2-; also recorded: PrOH, CH2Cl2,; also recorded: EtOAc, CHCl3”.
Consider `COc1cccc2c1C(=O)c1c(O)c3c(c(O)c1C2=O)CC(C)(O)CC3OC1OC(C)C(O)C(OC)C1O` (stereo not drawn) [P11, mutactimycin C], for which the MIC was more than 100 µg/mL in data set [1]; more than 100 µg/mL in data set [2]; more than 100 µg/mL in data set [3]; 5 µg/mL (≈ 9.42 µM) in [4]; 50 µg/mL (≈ 94.2 µM) in data set [5]; 40 µg/mL (≈ 75.4 µM) in data set [6]. Further, the MIC in data set [7] was 75 µg/mL (≈ 141 µM); in data set [8] it was 5 µg/mL (≈ 9.42 µM); in data set [9], more than 100 µg/mL; in data set [10] it was more than 100 µg/mL; in [12], more than 100 µg/mL; in data set [13], 10 µg/mL (≈ 18.8 µM). The “activity of the collected HPLC fraction” value in the data set on Bacillus subtilis was “active”. In [11], the “Relative solubility: Highly soluble (solvents)” value was “water, methanol, n-butanol, ethanol, 1-propanol and acetone; also recorded: MeOH, Me2CO, H20, n-; also recorded: BuOH, EtOH, 1-PrOH”. Further, the “Relative solubility: Insoluble (solvents)” value in data set [11] was “n-hexane and toluene”. For the same molecule, in data set [11], the “Relative solubility: Medium soluble (solvents)” value was “CH2Cl2, CHCl3, EtOAc, and 2-PrOH”.
In the case of `COC1C(OCC2C(C)OC(=O)/C=C/C(C)C(OC3OC(C)CC(O)(C(C)O)C3O)C(C)CC(C)C(=O)/C=C/C3OC32)OC(C)C(O)C1OC` (stereo not drawn) [P8, aldgamycin H], the MIC in data set [1] is more than 100 µg/mL; in data set [2], more than 100 µg/mL; in data set [3], more than 100 µg/mL; in data set [8] it was 1 µg/mL (≈ 1.4 µM); in data set [9] it was more than 100 µg/mL; in [10], more than 100 µg/mL. The MIC in data set [12] is more than 100 µg/mL. Besides, the “activity of the collected HPLC fraction” value in the data set with Bacillus subtilis is on record as “active”. Besides, the “Relative solubility: Highly soluble (solvents)” value in [11] was “methanol, n-butanol, ethanol, 1 and 2-propnol, ethyl acetate, acetone, chloroform and dichloromethane; also recorded: MeOH, EtOR, Me2CO,; also recorded: n-BuOH, 1-PrOH, 2-; also recorded: PrOH, CH2Cl2,; also recorded: EtOAc, CHCl3”.
Consider `COC1C(O)C(C)OC(OC2CC(C)(O)Cc3c(O)c4c(c(O)c32)C(=O)c2c(OC3OC(C)C(O)C(O)C3O)cccc2C4=O)C1O` (stereo not drawn) [PR, mutactimycin PR], for which the MIC was more than 100 µg/mL in data set [1]; more than 100 µg/mL in data set [2]; more than 100 µg/mL in [3]; 40 µg/mL (≈ 60.4 µM) in data set [4]; more than 100 µg/mL in data set [5]; 75 µg/mL (≈ 113 µM) in [6]. In addition, the MIC was more than 100 µg/mL in data set [7]; 50 µg/mL (≈ 75.5 µM) in data set [8]; more than 100 µg/mL in [9]; more than 100 µg/mL in data set [10]; more than 100 µg/mL in data set [12]; 50 µg/mL (≈ 75.5 µM) in data set [13]. Further, in the data set with Bacillus subtilis, the “activity of the collected HPLC fraction” value is recorded as “active”. Also, the activity in words entry in data set [4], in [6], in data set [7], in [8] and in data set [13] was “active” in each case. The “Relative solubility: Highly soluble (solvents)” value in [11] is “water, methanol and ethanol”; in data set [11] (listed as mutactimycin PR) it was “MeOH, EtOH, H2O”. Also, the “Relative solubility: Insoluble (solvents)” value in data set [11] was “chloroform, dichloromethane, ethyl acetate, n-hexane and toluene”; in [11] (listed as mutactimycin PR) it was “CH2Cl2, CHCl3,; also recorded: EtOAc, n-hexane,; also recorded: toluene”. For the same molecule, in [11] (listed as mutactimycin PR), the “Relative solubility: Medium soluble (solvents)” value is “Me2CO, n-BuOH, 1-; also recorded: PrOH, 2-PrOH”.
Regarding `COc1cccc2c1C(=O)c1c(O)c3c(c(O)c1C2=O)CC(C)(O)CC3OC1OC(C)C(O)C(O)C1O` (stereo not drawn) [F, mutactimycin F], in the data set with Bacillus subtilis, the “activity of the collected HPLC fraction” value is given as “active”. Moreover, the activity in words result in data set [4], in data set [6], in data set [7], in data set [8] and in data set [13] was “active” throughout. Besides, the “soluble in (solvents)” value in [11] was “water, n-butanol, 1-propanol and ethanol”. Besides, the “Relative solubility: Highly soluble (solvents)” value in [11] was “n-BuOH, 1-PrOH”. The “Relative solubility: Insoluble (solvents)” value in data set [11] is “n-hexane and toluene”; in data set [11] (listed as Mutactimycin F), “H2O, CH2Cl2, CHCl3; also recorded: EtOAc, Me2CO, n-hexane,; also recorded: toluene”. In addition, in [11], the “Relative solubility: Medium soluble (solvents)” value is given as “MeOH, EtOH”.

The term MIC denotes the smallest concentration in the dilution series that meets the test's criterion for growth inhibition. Lower therefore signals inhibition by little substance.
